Reference: patent EP0602814A1, “Crystal forms of optically active isoindolines and their use” (TAKEDA CHEMICAL INDUSTRIES, LTD., priority 1992, dated 1994)
pIC50: −log10 of the molar value.

How the values were obtained:
Male rats (SD/JCL) = assay: Antianxiety action (Vogel method, anticonflict water drinking test); format: in vivo; details: for Minimum Effective Dose (MED): rats; for antianxiety action stronger than that of the racemic compounds: ratio of MED of the racemic compound to MED of the optically active compound (Table 2)
benzodiazepine receptor = assay: [3H]diazepam binding to benzodiazepine receptor (crude mitochondrial fraction of cerebral cortex); parameters: species or system male SD rats; details: inhibition of ³H-diazepam (2 nM) binding by 50%, 4 °C, 20 minutes, Tris-HCl pH 7.4; read-out: IC₅₀
Method: The affinity of the compound of the present invention to a benzodiazepine receptor was investigated using radioactive [³H] diazepam.
Capability of specific binding to a benzodiazepin receptor was determined in accordance with the method described in the literature [Nature, 266, 732 (1977); European J. Pharmacol., 48, 263 (1978)]. Specifically, a crude mitochondrial fraction obtained from the cerebral cortex of male SD rats at 9 to 10 weeks of age was suspended in 50 mM Tris-HCL buffer (pH 7.4), and incubated, together with several concentrations of the subject drug and ³H-diazepam (final concentration 2 nM), at 4 °C for 20 minutes. This suspension was then filtered through a Whatman GF/B glass fiber filter, and the ³H-diazepam radioactivity on the filter was measured using a liquid scintillation counter. The concentration of the subject drug at which ³H-diazepam binding was inhibited by 50% was taken as the IC₅₀ value.

| Compound | Minimum Effective Dose (MED) (Male rats (SD/JCL); i.p., Vogel method) | pIC50 (benzodiazepine receptor) | Minimum Effective Dose (MED) (Male rats (SD/JCL); p.o., 30 minutes after dosing, water drinking frequency in 3 minutes) | antianxiety action stronger than that of the racemic compounds (Male rats (SD/JCL)) |
| --- | --- | --- | --- | --- |
| O=C(CC1c2ccccc2C(=O)N1c1ccc2ccc(Cl)nc2n1)N1CCC(O)CC1 (racemic) [Racemic compound of Example 3, 2-(7-chloro-1,8-naphthylidin-2-yl)-3-[(4-hydroxypiperidin-1-yl)carbonylmethyl]isoindolin-1-one, reference compound] | 20 mg/kg, i.p. | 8.67 |  |  |
| O=C(CC1c2ccccc2C(=O)N1c1ccc2ccc(Cl)nc2n1)N1CCC2(CC1)OCCO2 (racemic) [Racemic compound of Example 1, 2-(7-chloro-1,8-naphthylidin-2-yl)-3-[(1,4-dioxa-8-azaspiro[4.5]dec-8-yl)carbonylmethyl]isoindolin-1-one, reference compound] |  | 9.42 | 10 mg/kg, p.o. |  |
| O=C(C[C@H]1c2ccccc2C(=O)N1c1ccc2ccc(Cl)nc2n1)N1CCC(O)CC1 [Example 3, (S)-(+)-2-(7-chloro-1,8-naphthylidin-2-yl)-3-[(4-hydroxypiperidin-1-yl)carbonylmethyl]isoindolin-1-one] | Compound in Example 3 5.0 mg/kg, i.p. | 9.04 |  | 4 times |
| O=C(C[C@H]1c2ccccc2C(=O)N1c1ccc2ccc(Cl)nc2n1)N1CCC2(CC1)OCCO2 [Example 1, (S)-(+)-2-(7-chloro-1,8-naphthylidin-2-yl)-3-[(1,4-dioxa-8-azaspiro[4.5]dec-8-yl)carbonylmethyl]isoindolin-1-one] |  | 9.49 |  | 8 times |
